From the METLIN SMRT retention time set (Domingo-Almenara et al. 2019)

Assay: gradient 5% acetonitrile 3 min, to 50% in 2 min, to 85% in 15 min, held 3 min, 100 µL/min
Settings: column: Zorbax Extend-C18 2.1 x 50 mm; eluents: water / acetonitrile, 0.1% formic acid
How it was run: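 Retention times of pure standards were taken from adduct peaks that were selected by computer and manually inspected. Over 3 months, mixtures of ~100 molecules were run by HPLC–quadrupole time-of-flight mass spectrometry in positive and negative ionization mode. The Zorbax Extend-C18 column (2.1 × 50 mm, 1.8 μm) ran at 100 μL/min in water and acetonitrile, each containing 0.1% formic acid, with 40 μL dead volume and 900 μL dwell volume.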

| Compound | RP-LC retention time |
| --- | --- |
| COc1cc(OC)c(NC(=O)Nc2c(-c3ccc(C)cc3)nc3ccccn23)cc1Cl | 721 s |
| CC(=O)N1CCc2ccc(C(=O)N3CCCCCC3)cc21 | 709 s |
| CCn1ccc2sc(C)c(C(=O)NCc3ccco3)c2c1=O | 723 s |
| O=C(NCCn1c(=O)n(Cc2ccccc2)c2cccnc21)c1ccsc1 | 750 s |
| CCCCN1CCN(C(=O)CN2CCN(Cc3ccc(F)cc3Cl)C2=O)CC1 | 641 s |
| COC(=O)c1cccc(NC(=O)NC2CCN(c3ccccc3)C2=O)c1 (stereo unspecified) | 769 s |
| CC(C)C(=O)n1nc(-c2ccc(Cl)cc2)nc1N | 1050 s |
| CCOc1cc(C2c3c(oc4ccccc4c3=O)C(=O)N2CCCN(C)C)ccc1O (stereo unspecified) | 989 s |
| O=C(c1cccc(Cl)c1)N(CCS(=O)(=O)N1CCNCC1)CC1CCCO1 (stereo unspecified) | 618 s |
| CCN1C(=O)Cc2cc(C(=O)NCc3ccc(Br)cc3)ccc21 | 807 s |
| CCN(CC)C(=O)c1ccc2c(c1)N(CC(=O)NC1CCCCC1)C(=O)C1CCCCN21 (stereo unspecified) | 838 s |
| COc1ccc(OC)c(CNC(=O)C2CCCN(c3ccc(-c4ccccc4)nn3)C2)c1 (stereo unspecified) | 704 s |
| CCCCNC(=O)NC1CCS(=O)(=O)C1 (stereo unspecified) | 571 s |
| CCNc1cc(N2CCC(CCC(=O)NCc3ccc(OC)cc3)CC2)ncn1 | 568 s |
| CCOC(=O)CCNC(=O)N1c2ccccc2CC1c1nc(C2CC2)no1 (stereo unspecified) | 853 s |
| CN(CCc1ccccn1)C(=O)c1cccc(N2CCNC(c3ccccc3)C2)n1 (stereo unspecified) | 555 s |
| CC(=O)N1CCc2c(c(CNC(=O)Cc3c(C)noc3C)nn2C)C1 | 570 s |
| O=C(Cn1ccc2ccc(N3CCOCC3)nc21)N1CCN(c2ccccn2)CC1 | 616 s |
| CC(=O)Oc1ccc2cc(-c3ccccc3)c(=O)oc2c1 | 1000 s |
| Cc1nc(Nc2ccc(NC(=O)c3ccc(Br)o3)cc2)cc(-n2ccnc2)n1 | 587 s |
| COc1ccc(NC(=O)[C@@H]2c3ccccc3C(=O)N3CCCC[C@@H]23)cc1OC | 727 s |
| CC(=O)NCC(=O)N1[C@@H]2CC[C@H]1c1ccc(Nc3ncc(C(F)(F)F)c(NC4CCC4)n3)cc12 | 716 s |
| COc1ccccc1NC(=O)N1CCN(c2ccc(-c3noc(C)n3)cn2)CC1 | 724 s |
| O=C(CCc1c(-c2ccc(Br)cc2)nc2ccccn12)Nc1ccc(F)c(F)c1 | 727 s |
| COc1ccc(CCC(=O)N2CCc3cc(-c4csc(C)n4)ccc32)cc1 | 1060 s |
| Cc1cccc(-c2noc(-c3nn(-c4ccc(Cl)cc4)ccc3=O)n2)c1 | 1000 s |
| CCCN(C)c1nccn2c(=O)n(CC(=O)Nc3ccc(Br)cc3)nc12 | 736 s |
| Cc1ncc2c(n1)C[C@@H]1CC[C@H]2N1S(=O)(=O)c1ccc(F)c(C)c1 | 732 s |

| Compound | RP-LC retention time |
| --- | --- |
| CCn1cc(-c2ccccc2)cc1C(=O)NC(C)c1cccnc1 (stereo unspecified) | 692 s |
| Cc1nc2c(NC(=O)c3ccc(C(F)(F)F)s3)cccn2n1 | 900 s |
| CCCc1cc(C2CCCN2C(=O)Cc2ccc(OC)cc2)no1 (stereo unspecified) | 909 s |
| O=C(NCc1ccco1)C1CCCN(S(=O)(=O)c2c[nH]c(C(=O)N3CCCCCC3)c2)C1 (stereo unspecified) | 771 s |
| CCOc1ccc(NC(=O)Cn2c(=O)c(CCC(=O)NC3CCCC3)nc3ccccc32)cc1 | 860 s |
| O=C(NCc1cccs1)c1ccc2c(c1)ncn2CCN1CCCC1 | 577 s |
| O=C(CCc1c(-c2ccc(Br)cc2)nc2ccccn12)NC1CCCCC1 | 702 s |
| COc1ccccc1N1CCN(C(=O)C2CCN(c3cnc4nccnc4c3)CC2)CC1 | 673 s |
| CCNC(=O)N1CCC2(CC1)c1nccn1-c1ccccc1CN2CC(C)C | 623 s |
| CN(C)[C@@H]1CN(C(=O)Cc2cccc3ccccc23)C[C@H]1CO | 546 s |
| COc1ccc(-c2nn3c(COc4ccc(Br)cc4)nnc3s2)cc1OC | 980 s |
| CC(C)(C)C(=O)N1CCC2(CC1)CN(Cc1ccccc1)CC2CO (stereo unspecified) | 607 s |
| CCN1CCN(CCCNC(=O)Cc2c(C(=O)O)c(C)cn2CC)CC1 | 563 s |
| CCOc1ccccc1NC(=O)N1CCC(n2cnc3cccnc32)CC1 | 686 s |
| O=C(Nc1ccc(Cl)cc1F)c1cnc(-c2ccccc2)nc1-c1ccncc1 | 982 s |
| Cn1cnc2c(C(=O)N3CCc4ccccc4C3)nn(-c3ccccc3)c2c1=O | 831 s |
| Cc1noc(-c2ccc(OC3CN(C(=O)C4CCOC4)C3)cc2)n1 (stereo unspecified) | 695 s |
| CCc1cc2c(cc(C(=O)NCc3ccccc3)n2C)s1 | 1060 s |
| COc1ccc(CNC(=O)C2(C)CCN(C(=O)Nc3ccccc3C(F)(F)F)CC2)cc1 | 834 s |
| Cc1ccc(N2C(=O)C3N=NN(Cc4nc(-c5ccc(Br)cc5)no4)C3C2=O)cc1C (stereo unspecified) | 1130 s |
| O=C1COc2ccccc2N1Cc1nc(-c2cccc(Cl)c2)no1 | 1060 s |
| O=C(Nc1cccc(Cl)c1Cl)C1(c2ccc(F)cc2)CC1 | 1280 s |
| Cc1ccn2c(NC(=O)c3cccc(Br)c3)c(-c3ccccc3)nc2c1 | 715 s |
| CC(=O)N1CCCN(C(=O)c2ccc(C#N)cc2)CC1 | 589 s |
| CCOc1ccc(C2Cn3nnc(-c4nc(-c5ccc(F)cc5)no4)c3CO2)cc1 (stereo unspecified) | 1130 s |
| CC1=C(c2ccccc2)C=NNCC1=O | 733 s |
| O=C1CCCC(=O)C1CC1C(=O)CCCC1=O | 836 s |

The next lines start with the values.

| RP-LC retention time | Compound |
| --- | --- |
| 930 s | CN1c2cc(C(=O)Nc3cccc(C(F)(F)F)c3)ccc2C(=O)N2CCCCC21 (stereo unspecified) |
| 774 s | CC(C)CC(=O)Nc1ccc(-n2cnc(C(=O)N3CCC(C)CC3)c2)nc1 |
| 671 s | Cc1cccc(N2CCN(C(=O)CN3C(=O)CN(C)C(=O)c4ccccc43)CC2C)c1 (stereo unspecified) |
| 698 s | Cc1ccc(NC(=O)C2CCN(S(=O)(=O)c3ccc4c(c3)CCCC(=O)N4)CC2)cc1N(C)C |
| 944 s | CCOC(=O)Cn1c(=O)c2c(nc3n2CCCCN3c2ccc(OCC)cc2)n(C)c1=O |
| 1320 s | Cc1cc(NS(=O)(=O)c2cc3n(c2)CCN(C(C)C)C3=O)ccc1F |
| 564 s | CC(=O)N(C)CC(=O)N1CCN(c2cc(C)nc(Nc3ccc(C)cc3)n2)CC1 |
| 1190 s | CCOc1ccc(-c2noc(Cn3c(=O)n(C(C)C)c(=O)c4ccccc43)n2)cc1 |
| 910 s | Cc1ccc(S(=O)(=O)N2C(=O)CCC2C(=O)NCc2nc(-c3cccc(C)c3)no2)cc1 (stereo unspecified) |
| 609 s | Cc1cccc(CN2CCN(CC(=O)NC3CCN(Cc4ccccc4)CC3)C(=O)C2=O)c1 |
| 738 s | Cc1cc(NC(=O)CN2C(=O)C3CCCCN3c3ccc(C(=O)N4CCCC4)cc32)no1 (stereo unspecified) |
| 717 s | Cc1cc(=O)n(CC(=O)Nc2ccc(C)c(C)c2)c(N2CCCCC2)n1 |
| 634 s | COc1ccc(N2CC(NC(=O)c3ccc(S(=O)(=O)N(C)C)cc3)CC2=O)cc1OC (stereo unspecified) |
| 818 s | CC(NC(=O)c1cc2n(n1)CCCC2)c1ccc(F)cc1 (stereo unspecified) |
| 536 s | O=C1C(N2CCN(S(=O)(=O)c3cccs3)CC2)CCN1Cc1cccnc1 (stereo unspecified) |
| 818 s | Cc1ccc(NC(=O)C2CCCN2S(=O)(=O)c2ccc3c(c2)CCCC(=O)N3)cc1C (stereo unspecified) |
| 837 s | CC(=O)N1CCc2sc(C(=O)N3CCN(c4ccc(Cl)cc4)CC3)cc2C1 |
| 715 s | Cc1cc(C(=O)N2CCC(c3nc4ccccc4s3)CC2)n(C)n1 |

| RP-LC retention time | Compound |
| --- | --- |
| 624 s | CC(C)CNC(=O)C1Cn2cccc2C(=O)N1C (stereo unspecified) |
| 710 s | CC(C)OCCCNC(=O)CCc1nnc2c3cc(-c4ccc(F)cc4)nn3ccn12 |
| 1090 s | Cc1ccc(C)c(NC(=O)c2cc(C)n3nc(C)cc3n2)c1 |
| 732 s | COc1ccc(NC(=O)C2CCCN(S(=O)(=O)c3c[nH]c(C(=O)N4CCCC4)c3)C2)cc1 (stereo unspecified) |
| 568 s | CCNC(=O)c1cc(C)nc2c(C)cccc12 |
| 677 s | CCn1c(C(=O)NCCCN2CCCC2=O)c(N2CCCC2=O)c2cc(OC)ccc21 |
| 786 s | CCNC(=O)CN1c2ccc(F)cc2-c2ccccc2S1(=O)=O |
| 730 s | CCN1CCn2cc(S(=O)(=O)Nc3ccc(F)cc3C)cc2C1=O |
| 581 s | CCCN1CCN(c2ncc3c(n2)CCN(Cc2ccc(OC(C)C)cc2)C3)CC1 |
| 609 s | CC(C)Cn1cc(C(=O)O)c(S(=O)(=O)N2CCN(C(C)C)CC2)n1 |
| 719 s | CN1C(=O)c2cc(C(=O)NC3CCCC3)nn2CC1(C)C(=O)NCc1ccc(F)cc1 (stereo unspecified) |
| 774 s | CC(C)c1ccc(Nc2nc3ccncc3n(C(C)C)c2=O)cc1 |
| 970 s | CC(C)c1ccc(NC(=O)Cc2csc3nc(-c4ccccc4)cn23)cc1 |
| 817 s | Cn1cccc1C(=O)N1CCC2(CC1)NC(=O)N(Cc1ccc(Cl)cc1)C2=O |
| 566 s | COc1cn(CC(=O)Nc2cc(C)on2)c(CN2CCCCC2)cc1=O |
| 616 s | Cc1oc(-c2[nH]ncc2C(=O)N2CCOCC2)cc1S(=O)(=O)N1CCCC1 |
| 1030 s | CCSc1nc2ccc(NS(=O)(=O)c3ccccc3Cl)cc2s1 |
| 803 s | CC(C)OCCCNC(=O)C(C)n1c2ccccc2c2cnn(C)c(=O)c21 (stereo unspecified) |
